The values that follow come from publication PMC3718762, “Differential Disruption of EWS-FLI1 Binding by DNA-Binding Agents” (PLoS ONE, 2013).

For one experiment, the target named is T1, p53 (Homo sapiens, UniProt P04637).
T1 construct: made in house; host or cells: bacteria (pGex-6P-1-p53); plasmid was a gift from Dr. Guangchao Sui
Put plainly: AlphaScreen proximity assay (counterscreen), binding of recombinant p53 to cognate DNA oligo. An excerpt:
An AlphaScreen assay for binding of recombinant EWS-FLI1 to DNA was previously described. Briefly, recombinant EWS-FLI1 and p53 were synthesized in bacteria transformed with pGex-6P-1-EWS-FLI1 or pGex-6P-1-p53, and bound to AlphaScreen acceptor beads. A biotinylated oligonucleotide containing two copies of the EWS-FLI1 binding motif or p53 binding motifs was bound to AlphaScreen donor beads. For EWS-FLI1, the oligo sequence was: […]. The p53 binding oligo sequence was: […]. This assay was used to screen 5,200 compounds, as previously described. IC50 values were calculated with the GraphPad Prism software package.
We developed a homogeneous AlphaScreen assay to assess the binding of recombinant EWS-FLI1 to DNA [18]. A parallel assay assessing binding of p53 to DNA was used as a counterscreen. Briefly, in these proximity assays, recombinant GST-EWS-FLI1 or GST-p53 was bound to glutathione-conjugated AlphaScreen acceptor beads, and a synthetic biotinylated oligonucleotide (oligo) containing tandem EWS-FLI1 or p53 binding sites was bound to streptavidin-conjugated AlphaScreen donor beads. Binding of GST-EWS-FLI1 or GST-p53 to the cognate oligo allows singlet oxygen transfer from donor to acceptor beads when excited at 680 nm, with resulting light emission between 520–620 nm.

Another experiment has as its target EWS-FLI1. As to the kind of experiment: AlphaScreen proximity assay, binding of recombinant EWS-FLI1 to cognate DNA oligo. To be noted: for IC50: read-out: IC50 EWS-FLI1, disruption of recombinant EWS-FLI1 binding to DNA; for Disruption of EWS-FLI1 binding compared with p53 binding in the parallel assays: EWS-FLI1 versus p53. For orientation: Bead proximity is the source of the signal in Alpha formats.

Another experiment deals with NR0B1 promoter. Put plainly: NR0B1-Luc firefly luciferase reporter assay in A673 cells. Type of experiment: cell-based, human. To be noted: A673 cells, NR0B1-Luc versus UbC-RL. An excerpt:
The NR0B1 promoter was amplified from human genomic DNA using the 5′ primer- […] and 3′ primer - […]. NR0B1 promoter amplicon was cloned into the NheI and HindIII sites in the pGL.3Basic vector. The 5′ primer-[…] was used to amplify a truncated NR0B1 promoter in which the entire EWS-FLI1 binding region (GGAA repeats) was deleted to construct pGL.3b-NR0B1del. All constructs were confirmed by sequencing. All other plasmids were previously described.
Ewing sarcoma A673 cells at 50% confluence in 100 mm dishes were transfected with both 5.8 µg of pGL.3b-NR0B1 and 0.2 µg of pGL.3b-Ubc-RL reporter plasmids as above. Eight hours post-transfection, cells were trypsinized and 600 ul (2×10^5) of cells were added to each well of 24 well plates. 5 µl of different concentration of compounds or DMSO control were added to each well. Each treatment was performed in triplicate. Cells were incubated for 16 hours, then cells were lysed in 100 µl of lysis buffer and 10 µl of cell lysate was used for the dual luciferase assay. Renilla luciferase activity was used as an internal control for normalization of nonspecific transcriptional inhibition or cytotoxic effects. Experiments were repeated three times. IC50 values were calculated using Prism (Graphpad).
To determine the effect of compounds on EWS-FLI1 activity in cells, we used a reporter assay comprised of the NR0B1 promoter, a prototypical EWS-FLI1-regulated gene, driving expression of firefly luciferase. Renilla luciferase driven by the Ubiquitin C promoter (UbC-RL) was used as an internal control. Confirming prior studies, the NR0B1 promoter was verified to be highly responsive to EWS-FLI1, whereas the UbC promoter activity was not subject to regulation by EWS-FLI1 (Figure S1).
For orientation: Reporter assays use an easily measured gene product as a stand-in for the process of interest.

For another experiment, the system named is Ewing sarcoma cells. Details: method as in PMID 21403840, PMID 21653923. To be noted: prior studies ref [11], [12]; cited from earlier work.
Experiment [1] concerns EWS-FLI1 downstream targets. Also noted: method as in PMID 21403840, PMID 21653923. To be noted: prior studies ref [11], [12]; cited from earlier work.
Where [2] appears, read: AlphaScreen, disruption of recombinant p53 binding to DNA, read-out: IC50 p53.

Structures can show the parent of a compound that is named as a salt. Where two headings read alike, the source gives them in different places.

T1 sequence (P04637 whole entry, species assumed): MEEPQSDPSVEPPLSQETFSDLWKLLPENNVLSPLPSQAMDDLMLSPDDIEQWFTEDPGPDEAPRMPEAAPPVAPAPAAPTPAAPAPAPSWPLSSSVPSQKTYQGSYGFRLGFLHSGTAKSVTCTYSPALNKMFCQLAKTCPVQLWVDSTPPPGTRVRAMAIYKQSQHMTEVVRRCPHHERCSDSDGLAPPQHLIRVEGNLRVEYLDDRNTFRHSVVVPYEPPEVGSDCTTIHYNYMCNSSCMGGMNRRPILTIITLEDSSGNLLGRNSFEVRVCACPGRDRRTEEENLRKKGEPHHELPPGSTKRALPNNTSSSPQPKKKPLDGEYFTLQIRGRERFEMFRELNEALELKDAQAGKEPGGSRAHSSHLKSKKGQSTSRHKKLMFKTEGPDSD

A word on the IC50: it is the midpoint of a concentration-inhibition curve. Regarding `CC(C)[C@H](CO)Nc1nc(Nc2cc(N)cc(Cl)c2)c2ncn(C(C)C)c2n1` [Aminopurvalanol A], the IC50 turned out to be 1200 nM at p53 (setting [2]) and 1830 nM on EWS-FLI1.

Turning to `CCCCc1oc2ccccc2c1C(=O)c1cc(I)c(OCCN(CC)CC)c(I)c1` [Amiodarone HCl], the IC50 at p53 (setting [2]) was determined as 5290 nM.

Take `N.N.[Cl][Pt][Cl]` [Cisplatin]: the IC50 on p53 (setting [2]) came out at 8870 nM. Besides, in the experiment on EWS-FLI1, the “Disruption of EWS-FLI1 binding compared with p53 binding in the parallel assays” value is “disrupt both EWS-FLI1 and p53 binding similarly”; the IC50 is 5390 nM.

Turning to `CC(C)/N=c1\cc2n(-c3ccc(Cl)cc3)c3ccccc3nc-2cc1Nc1ccc(Cl)cc1` [Clofazimine], the IC50 on p53 (setting [2]) turned out to be 203 nM; at EWS-FLI1 it was 202 nM.

`CN(C)c1ccc(/C=C2\C(=O)Nc3ccccc32)cc1` [DMBI]: the IC50 was found to be 3780 nM on p53 (setting [2]) and 3370 nM on EWS-FLI1.

As for `COc1cccc2c1C(=O)c1c(O)c3c(c(O)c1C2=O)C[C@@](O)(C(C)=O)C[C@@H]3O[C@H]1C[C@H](N)[C@H](O)[C@H](C)O1` [Daunorubicin], in the experiment with EWS-FLI1, the “Disruption of EWS-FLI1 binding compared with p53 binding in the parallel assays” value was “disrupt both EWS-FLI1 and p53 binding similarly”; the IC50 came to 4480 nM.

In the case of `COc1cccc2c1C(=O)c1c(O)c3c(c(O)c1C2=O)C[C@@](O)(C(=O)CO)C[C@@H]3O[C@H]1C[C@H](N)[C@H](O)[C@H](C)O1` [Doxorubincin], at p53, the IC50 worked out at 1220 nM. In the experiment on EWS-FLI1, the “Disruption of EWS-FLI1 binding compared with p53 binding in the parallel assays” value was “disrupt both EWS-FLI1 and p53 binding similarly”; the IC50 amounted to 344 nM. In the experiment with NR0B1 promoter, the “Separation of inhibition of the NR0B1 and UbC reporters” value is “no separation”.

Take `COc1cc2c(cc1O)CCN[C@]21CS[C@@H]2c3c(OC(C)=O)c(C)c4c(c3[C@H](COC1=O)N1[C@@H]2[C@H]2c3c(cc(C)c(OC)c3O)C[C@@H]([C@@H]1O)N2C)OCO4` [ET-743, trabectedin]: the “Growth of Ewing sarcoma cells” value in the experiment on Ewing sarcoma cells is given as “inhibited”. For the same compound, the “Expression of EWS-FLI1 downstream targets” value in experiment [1] is recorded as “reduced”.

`O=c1c2ccccc2[se]n1-c1ccccc1` [Ebselen]: the IC50 at p53 (setting [2]) was greater than 10000 nM; on EWS-FLI1, 631 nM. Further, the “Separation of inhibition of the NR0B1 and UbC reporters” value in the experiment with NR0B1 promoter is “modulated the NR0B1 and UbC reporters equally”.

Regarding `COc1cccc2c1C(=O)c1c(O)c3c(c(O)c1C2=O)C[C@@](O)(C(=O)CO)C[C@@H]3O[C@H]1C[C@H](N)[C@@H](O)[C@H](C)O1` [Epirubicin], the IC50 at p53 amounted to 389 nM; at EWS-FLI1, 42 nM. In addition, the “Separation of inhibition of the NR0B1 and UbC reporters” value in the experiment on NR0B1 promoter is listed as “no separation”.

`CCOc1ccc(C=C2SC(=O)N(CCN)C2=O)cc1.Cl` [Erk inihibitor]: the values for the IC50 at p53 (setting [2]) and on EWS-FLI1 were greater than 10000 nM and 3350 nM, respectively. Besides, in the experiment with NR0B1 promoter, the “Separation of inhibition of the NR0B1 and UbC reporters” value was “modulated the NR0B1 and UbC reporters equally”.

Take `CCOc1ccc2c(c1)C(C)=CC(C)(C)N2` [Ethoxyqiun]: the IC50 at p53 (setting [2]) came out at 484 nM; at EWS-FLI1, 464 nM.

For `Cn1c2ccccc2c2c3c(c4c5ccccc5n(CCC#N)c4c21)CNC3=O` [Go 6976], the IC50 at p53 (setting [2]) was 2810 nM.

With `COc1ccc2[nH]c([S+]([O-])Cc3ncc(C)c(OC)c3C)nc2c1` (stereo not drawn) [Omeprazole], on EWS-FLI1, the IC50 is 7330 nM.

In the case of `CC(=O)[O][Hg][c]1ccccc1` [Phenylmericuric Acetate], the IC50 worked out at 25 nM at p53 (setting [2]) and 16 nM at EWS-FLI1.

Take `CCN(CC)CCCC(C)Nc1c2ccc(Cl)cc2nc2ccc(OC)cc12` (stereo not drawn) [Quinacrine HCl]: the values for the IC50 at p53 (setting [2]) and on EWS-FLI1 were 6060 nM and 7030 nM, respectively.

Take `c1nc2nc(Nc3ccc(N4CCOCC4)cc3)nc(NC3CCCCC3)c2[nH]1` [Reversine]: the IC50 came out at 2710 nM at p53 and 2420 nM on EWS-FLI1.

As for `CC(C)=CC[C@@H](O)C1=CC(=O)c2c(O)ccc(O)c2C1=O` [Shikonin], the IC50 at p53 was 633 nM; at EWS-FLI1 it was 600 nM.

As for Verteporfin, on EWS-FLI1, the IC50 is 342 nM.

As to mithramycin, in the experiment on Ewing sarcoma cells, the “Growth of Ewing sarcoma cells” value is reported as “inhibited”. In addition, in experiment [1], the “Expression of EWS-FLI1 downstream targets” value is on record as “reduced”.
